Experimental data reported in PMC9603770, “Broad-Spectrum Inhibitors against Class A, B, and C Type β-Lactamases to Block the Hydrolysis against Antibiotics: Kinetics and Structural Characterization” (Microbiology Spectrum, 2022).

Tests used:
[1] = target: T1, KPC-2 (Klebsiella pneumoniae, UniProt Q9F663); test: Fluorescence quenching; assay type: binding; conditions: 298 K
T1 construct: made in house; host or cells: E. coli (DH5 and BL21(DE3) named; pET-28a)
Method: (§1) Fluorescence quenching can be either dynamic or static in nature. The fluorescence intensity was calculated to understand the mechanism of protein quenching from all three classes of β-lactamase with D63, D2148, and D2573. The KSV (Stern–Volmer quenching constant; [Q] is the concentration of inhibitor) of all protein-inhibitor complexes was calculated from the slope of plot Fo/F (fluorescence intensities in the absence and presence of quencher) versus [Q], whereas number of binding sites (n) and Kb values for all combinations of proteins and inhibitors were determined by the slope and intercept of plot log (Fo/F – 1) versus log[Q] (Table 9).
(§2) A Shimadzu RF-5301PC spectrofluorometer (Shimadzu Corporation, Kyoto, Japan) was used to measure the fluorescence spectra. Quenching was observed by measuring intrinsic fluorescence at 295 nm between 300 and 400 nm. The emission and excitation slits were both adjusted to 5 nm. Then, 2 μM each D2573, D2148, and D63 were added to a 3-mL sample containing 2 μM protein ([…]). All the fluorescence intensities were corrected for the inner filter effect. The determination of the number of binding sites (n) and binding constant (Kb) at 298 K temperature for all the protein-inhibitor combinations from the Stern-Volmer equation and modified Stern-Volmer equation (equations 4 and 5). (4) (F0)/F = 1 + Ksv[Q] (5) Log (F0 − F)/F= logKb + n log[Q]
(§3) Fo and F are the fluorescence intensities in the absence and presence of quencher (D63, D2148, D2573).

[2] = target: T2, CTX-M-15 (Escherichia coli, UniProt Q9EXV5); test: Fluorescence quenching; assay type: binding; conditions: 298 K
T2 construct: made in house; host or cells: E. coli (DH5 and BL21(DE3) named)
T2 sequence (Q9EXV5 29-291, species assumed): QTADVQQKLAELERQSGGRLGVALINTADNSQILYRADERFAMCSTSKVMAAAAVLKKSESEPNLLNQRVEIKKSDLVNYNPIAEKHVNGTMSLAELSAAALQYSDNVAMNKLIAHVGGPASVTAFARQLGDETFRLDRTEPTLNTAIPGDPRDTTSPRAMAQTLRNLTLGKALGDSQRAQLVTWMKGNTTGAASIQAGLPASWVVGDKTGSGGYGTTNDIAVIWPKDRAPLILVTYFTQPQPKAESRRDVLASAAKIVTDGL
Method: as §1, §2, §3

[3] = target: T3, SHV-1 (Klebsiella pneumoniae, UniProt P0AD64); test: IC50, nitrocefin hydrolysis; assay type: biochemical
T3 construct: made in house; host or cells: E. coli (DH5 and BL21(DE3) named; pET-28a)
T3 sequence (P0AD64 22-286): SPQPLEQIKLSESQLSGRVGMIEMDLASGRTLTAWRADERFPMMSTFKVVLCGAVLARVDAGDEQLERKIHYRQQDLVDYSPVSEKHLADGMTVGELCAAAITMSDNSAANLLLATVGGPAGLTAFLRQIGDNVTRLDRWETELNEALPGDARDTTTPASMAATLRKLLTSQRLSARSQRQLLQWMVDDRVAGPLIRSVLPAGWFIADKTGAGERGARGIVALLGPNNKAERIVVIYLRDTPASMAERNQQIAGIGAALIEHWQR
Method: (§4) The IC50 values of all the proteins were calculated to determine the efficacy of each inhibitor. The IC50 values were calculated for the proteins NDM-1, Amp-C, KPC-2, CTX-M-15, SHV-1, and TEM-1 with each of its inhibitors (D63, D2148, and D2573) to compare their efficacies at a fixed concentration 100 μΜ of nitrocefin (Table 7).
(§5) Overexpression of proteins was done by adding 0.5 mM IPTG (isopropyl-β-D-thiogalactopyranoside), and purification of the NDM-1, SHV-1, TEM-1, CTX-M-15, KPC-2, and Amp-C recombinant protein was performed with an Ni-NTA affinity column. […] The final concentration of the protein was estimated with a NanoDrop instrument.
(§6) The direct competition between the β-lactamase substrate, nitrocefin, and their inhibitors were used to determine the IC50 and Ki values. Using a Shimadzu UV-VIS spectrophotometer UV-1800, variable quantities of inhibitor D63, D2148, and D2573 (0 to 3 μM), fixed concentrations of purified proteins (1 nM), and nitrocefin substrate (100 μM) were used in a reaction at 486 nm. […] The IC50 value is the inhibitor concentration that inhibits enzyme hydrolytic activity by 50% (50% inhibitory concentration).

[4] = target: T1, KPC-2; test: IC50, nitrocefin hydrolysis; assay type: biochemical; conditions: 100 μΜ nitrocefin
Method: as §4, §5, §6

[5] = target: T4, NDM-1 (Klebsiella pneumoniae, UniProt C7C422); test: IC50, nitrocefin hydrolysis; assay type: biochemical; conditions: 100 μΜ nitrocefin
T4 construct: made in house; host or cells: E. coli (DH5 and BL21(DE3) named)
T4 sequence (C7C422 29-270, looked up, species assumed): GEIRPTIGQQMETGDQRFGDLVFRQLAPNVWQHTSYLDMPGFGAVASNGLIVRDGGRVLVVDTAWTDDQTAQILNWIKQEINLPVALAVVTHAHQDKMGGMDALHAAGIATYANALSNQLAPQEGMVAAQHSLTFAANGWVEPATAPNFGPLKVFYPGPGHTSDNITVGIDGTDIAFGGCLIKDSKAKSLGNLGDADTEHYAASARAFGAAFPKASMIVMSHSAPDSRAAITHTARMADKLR
Method: as §4, §5, §6

[6] = target: T5, Amp-C (Escherichia coli, UniProt P00811); test: IC50, nitrocefin hydrolysis; assay type: biochemical
T5 construct: made in house; host or cells: E. coli (DH5 and BL21(DE3) named; pET-28a)
T5 sequence (P00811 20-377): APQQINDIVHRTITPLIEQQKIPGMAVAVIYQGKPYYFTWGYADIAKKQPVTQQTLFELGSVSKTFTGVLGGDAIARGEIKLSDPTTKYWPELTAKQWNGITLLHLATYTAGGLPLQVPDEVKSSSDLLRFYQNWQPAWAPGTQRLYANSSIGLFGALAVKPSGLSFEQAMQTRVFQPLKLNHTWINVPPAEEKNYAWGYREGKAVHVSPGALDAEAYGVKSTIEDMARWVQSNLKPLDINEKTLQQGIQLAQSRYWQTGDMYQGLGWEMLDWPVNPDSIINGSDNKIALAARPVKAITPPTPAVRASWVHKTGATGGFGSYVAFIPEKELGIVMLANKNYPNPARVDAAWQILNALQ
Method: as §4, §5, §6

[7] = target: T6, TEM-1 (Escherichia coli, UniProt P62593); test: IC50, nitrocefin hydrolysis; assay type: biochemical; conditions: 100 μΜ nitrocefin
T6 construct: made in house; host or cells: E. coli (DH5 and BL21(DE3) named; pET-28a)
T6 sequence (P62593 24-286 limits assumed): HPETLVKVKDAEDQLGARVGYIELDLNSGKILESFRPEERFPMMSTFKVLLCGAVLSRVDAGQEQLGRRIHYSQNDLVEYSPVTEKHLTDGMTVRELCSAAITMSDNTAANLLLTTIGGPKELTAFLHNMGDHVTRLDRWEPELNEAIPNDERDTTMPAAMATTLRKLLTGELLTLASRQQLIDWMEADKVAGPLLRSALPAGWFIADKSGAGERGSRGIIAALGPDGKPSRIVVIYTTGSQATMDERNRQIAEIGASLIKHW
Method: as §4, §5, §6

[8] = target: T2, CTX-M-15; test: IC50, nitrocefin hydrolysis; assay type: biochemical; conditions: 100 μΜ nitrocefin
Method: as §4, §5, §6

[9] = target: T5, Amp-C; test: Fluorescence quenching; assay type: binding; conditions: 298 K
Method: as §1, with “9). In this study, the KSV values were obtained, on the order of 10^2 to 10^5, for all enzyme-inhibitor complexes.” for “9).”
as §2, §3

[10] = tested on: β-lactamase-producing clones; test: MIC fold reduction of meropenem in combination with inhibitor (discussion summary); assay type: cell-based, Escherichia coli
Excerpt: The combination of D2573 with cephalosporins (cefotaxime plus D2573 and cefoxitin plus D2573) or the combination of D2148 with cephalosporins (cefotaxime plus D2148 and cefoxitin plus D2148) or the combination of D63 with cephalosporins (cefotaxime plus D63 and cefoxitin plus D63) had […] MICs than the control. […] The MIC and MBC data are in harmony with in silico data which concluded that three potential inhibitors, D2573, D2148, and D63, are potential candidates against broad-spectrum β-lactamase-producing bacterial strains.
The MICs of various antibiotics in combination with selected inhibitors were determined on DH5α cells and clinical strains (AK-10, AK-12,AK-18, NP-6, AK-67, AK-66) using the microdilution method; Clinical and Laboratory Standards Institute (CLSI) guidelines were used to interpret the results ([37], [38]). In a series of 2-fold dilutions, E. coli cells were given escalating doses of antibiotics from 0 to 512 μg/mL.

T1 sequence (Q9F663 25-293, looked up, species assumed): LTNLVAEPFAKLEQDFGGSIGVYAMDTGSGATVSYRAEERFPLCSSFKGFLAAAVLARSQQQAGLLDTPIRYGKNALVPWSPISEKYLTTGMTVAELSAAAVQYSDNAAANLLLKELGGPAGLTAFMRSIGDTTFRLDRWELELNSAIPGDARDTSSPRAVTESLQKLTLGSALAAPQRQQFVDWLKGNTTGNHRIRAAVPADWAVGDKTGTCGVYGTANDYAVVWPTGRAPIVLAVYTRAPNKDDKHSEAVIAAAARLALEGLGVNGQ

| SMILES | n (number of binding sites) [1] | n (number of binding sites) [2] | IC50 [3] | IC50 [4] | IC50 [5] | IC50 [6] | IC50 [7] | IC50 [8] | n (number of binding sites) [9] | Reduction of MIC of meropenem in combination with inhibitor ([10]; all selected β-lactamase enzymes) | Reduction of MIC of meropenem in combination with inhibitor ([10]; class A β-lactamases) | Reduction of MIC of meropenem in combination with inhibitor ([10]; class B and C β-lactamases) |
| --- | --- | --- | --- | --- | --- | --- | --- | --- | --- | --- | --- | --- |
| O=C(O)c1ccccc1C(=O)N1CCN(c2nc(-c3ccccc3)ns2)CC1 [D2573, 2-{[4-(3-phenyl-1,2,4-thiadiazol-5-yl)piperazino]carbonyl}benzoic acid] | 1.1315 | 0.9674 | 0.655 nM | 0.667 nM | 0.624 nM | 0.655 nM | 0.634 nM | 0.731 nM | 0.7042 | 2 fold | – | – |
| O=C(CN1C(=O)c2ccccc2S1(=O)=O)c1ccc(O)c(O)c1 [D63, 2-[2-(3,4-dihydroxyphenyl)-2-oxoethyl]-1H-1,2-benzisothiazole-1,1,3(2H)-trione] | 0.33 | 1.9313 | 0.649 nM | 0.695 nM | 0.733 nM | 0.609 nM | 0.726 nM | 0.779 nM | 0.8493 | – | 2 fold | 4 fold |
| O=C(c1ccccc1)C1CCN(C(=O)CN2C(=O)c3ccccc3C2=O)CC1 [D2148, 2-[2-(4-benzoylpiperidino) -2-oxoethyl]-1H-isoindole-1,3(2H)-dione] | 1.148 | 1.163 | 0.587 nM | 0.744 nM | 0.632 nM | 0.714 nM | 0.449 nM | 0.638 nM | 1.2792 | – | 2 fold | 4 fold |
